Non-standard residues stand in square brackets, D forms with d. Residues, ends and D or L forms follow the SMILES beside them. *: point of attachment. εLys(Nα-Palmitoyl) = CCCCCCCCCCCCCCCC(=O)N[C@@H](CCCCN*)C(=O)O; Aib = CC(C)(N)C(=O)O
Assays:
[1] = test system: db/db mice with type 2 diabetes; assay: Random blood glucose of db/db mice after single subcutaneous injection; type: in vivo; details: for random blood glucose: n = 8; for decrease rate of random blood glucose: versus control group
Protocol: db/db mice with type 2 diabetes were divided into six groups based on a random blood glucose and body weight (8 per group). […] The random blood glucose of the mice is determined at differete time after administration.
Preparation method: 1 bottle of the compound (2 mg/bottle) was dissolved with double-distilled water to prepare a colorless and transparent solution of which the concentration is 2 mg/mL. […] “ACCU-CHEK® Advantage” blood glucose meter form Roche was used to determine the blood glucose.
Route and volume of administration: Single subcutaneous injection dose, dose volume was 5 mL/kg. […]
The random blood glucoses of db/db mice were measured.
Each group has 8 mice, half male and half female. The animals of each group were administered with the test compounds or solvent control respectively through single subcutaneous injection.

[2] = target: T1, Glucagon-like peptide-1 receptor (GLP1R) (Homo sapiens, UniProt P43220); assay: Agonist activity on GLP1R, cAMP response element luciferase reporter gene in HEK293 cells; type: cell-based; details: HEK293 cells stably transfected with GLP1R and pCRE-Luc, 5 hours incubation; read-out: Maximum reaction rate
T1 construct: expressed in transfected cells; host or cells: HEK293
Text: GLP1R is a receptor coupled with Gs protein, of which the binding with the agonists will result in an increase of intracellular cAMP concentration. In the present experiment, GLP1R and the luciferase reporter gene plasmid regulated by cAMP response elements are co-transfected into HEK293 cells. When the compound binds to the receptor and activates the receptors, the expression of the luciferase will increase. The activation status of the compound to GLP1R can be learned by testing the activity of the luciferase.
2. The compounds or positive drugs having a certain concentration gradient were added (3 wells per concentration) and incubated at 37° C. for 5 hours. The negative control was solvent DMSO.
3. 50 μl culture medium was taken from each well, and 50 μl of the luciferase substrate were added and vortexed for 10 minutes.
4. 80 μl reaction solution was taken and transferred to a white 96 well plate, then detected on the Invision microplate reader (enzyme-labelling measuring instrument).

[3] = cited from earlier work

T1 sequence (P43220 24-463, species assumed): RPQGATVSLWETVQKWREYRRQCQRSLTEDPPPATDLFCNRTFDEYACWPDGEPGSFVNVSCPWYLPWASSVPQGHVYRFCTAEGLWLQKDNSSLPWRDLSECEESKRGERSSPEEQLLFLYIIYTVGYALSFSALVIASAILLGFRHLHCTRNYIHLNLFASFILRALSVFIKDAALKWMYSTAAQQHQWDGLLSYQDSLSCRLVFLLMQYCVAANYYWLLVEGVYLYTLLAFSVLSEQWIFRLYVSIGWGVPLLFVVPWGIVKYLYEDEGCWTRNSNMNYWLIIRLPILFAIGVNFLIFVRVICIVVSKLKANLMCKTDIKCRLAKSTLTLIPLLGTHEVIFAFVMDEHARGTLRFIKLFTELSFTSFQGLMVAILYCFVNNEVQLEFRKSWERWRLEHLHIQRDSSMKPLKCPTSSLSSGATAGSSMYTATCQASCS

Compound: CCCCCCCCCCCCCCCC(=O)N[C@@H](CCCCNC(=O)[C@H](CO)NC(=O)[C@@H]1CCCN1C(=O)[C@@H]1CCCN1C(=O)[C@@H]1CCCN1C(=O)[C@H](C)NC(=O)CNC(=O)[C@H](CO)NC(=O)[C@H](CO)NC(=O)[C@@H]1CCCN1C(=O)CNC(=O)CNC(=O)[C@H](CCCNC(=N)N)NC(=O)[C@@H](NC(=O)[C@H](CC(C)C)NC(=O)[C@H](Cc1c[nH]c2ccccc12)NC(=O)[C@H](C)NC(=O)[C@@H](NC(=O)[C@H](Cc1ccccc1)NC(=O)[C@H](CCC(=O)O)NC(=O)[C@H](CCCCN)NC(=O)[C@H](C)NC(=O)[C@H](C)NC(=O)[C@H](CCC(=O)O)NC(=O)[C@H](CCC(=O)O)NC(=O)[C@H](CCC(=O)O)NC(=O)[C@H](CC(C)C)NC(=O)[C@H](Cc1ccc(O)cc1)NC(=O)[C@H](CO)NC(=O)[C@H](CO)NC(=O)[C@@H](NC(=O)[C@H](CC(=O)O)NC(=O)[C@H](CO)NC(=O)[C@@H](NC(=O)[C@H](Cc1ccccc1)NC(=O)[C@@H](NC(=O)CNC(=O)[C@H](CCC(=O)O)NC(=O)C(C)(C)NC(=O)[C@@H](N)Cc1c[nH]cn1)[C@@H](C)O)[C@@H](C)O)C(C)C)[C@@H](C)CC)C(C)C)C(=O)O [HS-20004] (H-H[Aib]EGTFTSDVSSYLEEEAAKEFIAWLVRGGPSSGAPPPS-{εLys(Nα-Palmitoyl)}; N-terminus and C-terminus assumed)
- random blood glucose ([1]; 3 μg/kg single s.c., 1 h after administration, X ± s): 20.11 ± 1.28 mmol/L
- decrease rate of random blood glucose ([1]; 3 μg/kg single s.c., 1 h after administration): 15.00%
- decrease rate of random blood glucose ([1]; 3 μg/kg single s.c., 1 h after administration, listed as 20004): 15.00%
- random blood glucose ([1]; 3 μg/kg single s.c., 2 h after administration, X ± s): 18.81 ± 1.50 mmol/L
- decrease rate of random blood glucose ([1]; 3 μg/kg single s.c., 2 h after administration): 16.85%
- random blood glucose ([1]; 3 μg/kg single s.c., 4 h after administration, X ± s): 17.98 ± 1.38 mmol/L
- decrease rate of random blood glucose ([1]; 3 μg/kg single s.c., 4 h after administration): 18.30%
- random blood glucose ([1]; 3 μg/kg single s.c., 8 h after administration, X ± s): 23.30 ± 1.47 mmol/L
- decrease rate of random blood glucose ([1]; 3 μg/kg single s.c., 8 h after administration): 8.22%
- random blood glucose values compared with those of the control group ([1]; 3 μg/kg single s.c., after 2 h and 4 h, P<0.05): kept a lower level and had significant difference
- random blood glucose values compared with those of the control group ([1]; 3 μg/kg single s.c., after 8 hours): no significant difference
- random blood glucose values compared with those of the control group ([1]; 3 μg/kg single s.c., after one hour, P<0.05): decreased significantly
- random blood glucose ([1]; 3 μg/kg single s.c., before administration, X ± s): 25.11 ± 1.63 mmol/L
- decrease rate of random blood glucose ([1]; 10 μg/kg single s.c., 1 h after administration): 36.20%
- random blood glucose ([1]; 10 μg/kg single s.c., 1 h after administration, ± s): 19.63 ± 1.81 mmol/L
- decrease rate of random blood glucose ([1]; 10 μg/kg single s.c., 2 h after administration): 27.82%
- random blood glucose ([1]; 10 μg/kg single s.c., 2 h after administration, ± s): 21.86 ± 1.66 mmol/L
- decrease rate of random blood glucose ([1]; 10 μg/kg single s.c., 4 h after administration): 28.30%
- random blood glucose ([1]; 10 μg/kg single s.c., 4 h after administration, ± s): 21.44 ± 1.68 mmol/L
- decrease rate of random blood glucose ([1]; 10 μg/kg single s.c., 8 h after administration): 23.32%
- random blood glucose ([1]; 10 μg/kg single s.c., 8 h after administration, ± s): 23.80 ± 1.46 mmol/L
- decrease rate of random blood glucose ([1]; 10 μg/kg single s.c., 24 h after administration): 11.52%
- random blood glucose ([1]; 10 μg/kg single s.c., 24 h after administration, ± s): 25.64 ± 1.85 mmol/L
- random blood glucose values compared with those of the control group ([1]; 10 μg/kg single s.c., after 4 h and 8 h): still kept at a lower level
- random blood glucose values compared with those of the control group ([1]; 10 μg/kg single s.c., after 24 hours): not significantly different
- random blood glucose ([1]; 10 μg/kg single s.c., before administration, ± s): 23.18 ± 1.65 mmol/L
- random blood glucose values compared with those of the control group ([1]; 10 μg/kg single s.c., time not specified): decreased immediately and significantly
- effect on reducing random blood glucose compared within the series ([1]; single s.c.): much better effect
- random blood glucose level (words, test conclusions) ([1]; single s.c., dose of 3 μg/kg (so in the source)): decreased obviously
- Emax [2]: 90.8%

Compound: glucagon-like peptide-1 [GLP-1]
- in vivo half-life [3]: about 2 minutes
